# PubChem BioAssay (NCI)
#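 Tested at 5 concentrations; 48 h exposure; 96-well plates; endpoints linearly interpolated, else capped at highest concentration. GI50 is the concentration that inhibits growth by half. The concentration for full growth arrest is given as TGI.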 Where a SMILES comes first, the peptide text is derived from it. The star is where a group is joined. Palmitoyl = CCCCCCCCCCCCCCCC(=O)*
# Assays:
# Assay in all cases: NCI-60 cell line screen, 48 h
# HT29 colon = tested on: HT29 colon
# IGROV1 ovarian = tested on: IGROV1 ovarian
# K-562 leukemia = tested on: K-562 leukemia
# MALME-3M melanoma = tested on: MALME-3M melanoma
# MCF7 breast = tested on: MCF7 breast
# NCI/ADR-RES ovarian = tested on: NCI/ADR-RES ovarian
# SK-OV-3 ovarian = tested on: SK-OV-3 ovarian
# U251 CNS = tested on: U251 CNS
# SK-MEL-2 melanoma = tested on: SK-MEL-2 melanoma
Structure (SMILES),TGI (HT29 colon) [µM],TGI (IGROV1 ovarian) [µM],TGI (K-562 leukemia) [µM],TGI (MALME-3M melanoma) [µM],TGI (MCF7 breast) [µM],TGI (NCI/ADR-RES ovarian) [µM],TGI (SK-OV-3 ovarian) [µM],TGI (U251 CNS) [µM],TGI (SK-MEL-2 melanoma) [µM],GI50 (HT29 colon) [µM],GI50 (K-562 leukemia) [µM],GI50 (MALME-3M melanoma) [µM],GI50 (MCF7 breast) [µM],GI50 (NCI/ADR-RES ovarian) [µM],GI50 (SK-MEL-2 melanoma) [µM],GI50 (SK-OV-3 ovarian) [µM],GI50 (U251 CNS) [µM],GI50 (IGROV1 ovarian) [µM]
N#Cc1sc2c(c1OC(=O)c1ccc(C(F)(F)F)cc1)c(=O)n(-c1ccccc1)c(=S)n2-c1ccccc1,82.5,56.2,> 100,84.4,> 100,> 100,> 100,97,,,,,,,,,,
CC1(C)CCc2c(ccc(C(=O)/C=C/c3ccc(O)cc3)c2O)O1,23.9,19.9,75,16.3,29.4,21.6,74.6,20.1,23.5,,,,,,,,,
C=CCn1c(=O)ccn(/C(=C/C(=O)OCC)C(=O)OCC)c1=O,27.9,29.7,12.5,25.4,17.1,50.8,74.3,27.6,34.3,,,,,,,,,
COc1ccc(/C=N/NC(=O)c2ccc(O)c(CN(C)C)c2)cc1,> 100,> 100,> 100,> 100,> 100,> 100,> 100,> 100,> 100,,,,,,,,,
CO/N=C(/C(=O)OC)c1ccccc1COc1ccccc1C(F)(F)F,> 100,> 100,> 100,47.2,> 100,> 100,91.8,> 100,73.2,,,,,,,,,
CCc1n[nH]c(=O)n1-c1ccc2ccccc2c1,> 100,> 100,> 100,> 100,> 100,> 100,> 100,> 100,> 100,,,,,,,,,
COC1OC2COC(c3ccccc3)OC2C(O)C1OC(=S)c1ccccc1 (configuration not stated),47.9,> 100,> 100,71.6,> 100,> 100,> 100,12.9,> 100,,,,,,,,,
COc1cc2c(cc1OCCCCCN1CCN(c3ncnc4ccccc34)CC1)N=CC1CCCN1C2=O (configuration not stated),10.8,,,0.0618,0.923,> 36.4,0.379,3.98,0.709,0.0275,< 0.0174,0.0303,0.0162,0.378,0.0425,0.0334,0.0252,
CCOC(=O)CC/C(=N/Nc1ccc(Cl)cc1[N+](=O)[O-])C(=O)OCC,> 100,> 100,> 100,> 100,> 100,> 100,> 100,> 100,> 100,,,,,,,,,
C=C(C)[C@H]1C2=CC(C(=O)OC)=C(C[C@H](C(=C)C)[C@@H](O)[C@@H](O)C3=C[C@H]1OC3=O)O2,> 100,> 100,> 100,> 100,> 100,> 100,> 100,> 100,> 100,,,,,,,,,
O=C(c1ccccc1)c1ccc2c(c1)NC(=O)c1ccccc1SSc1ccccc1C(=O)N2,> 100,> 100,> 100,> 100,,> 100,> 100,> 100,> 100,,,,,,,,,
O=C(OCC(Cl)(Cl)Cl)N1CC[C@H](C2CCCCC2)C1,,32.7,53,,34.9,28.5,31.8,13.6,30.4,,,,,,,,,
COc1cccc2c1OC(c1cccc3ccccc13)C([N+](=O)[O-])=C2 (configuration not stated),4.5,7.5,4.19,4.08,2.65,7.29,9.89,2.9,,,,,,,,,,
COc1cc(C=O)ccc1O,> 100,> 100,> 100,> 100,> 100,> 100,,> 100,,,,,,,,,,
COc1cc(Nc2ccc3c(c2)CCC3)nc(OC)n1,51.4,> 100,,> 100,> 100,65.5,> 100,> 100,> 100,,,,,,,,,
OC(C#CCN1CCCC1)(c1ccccc1)c1ccccc1Cl (configuration not stated),30.1,73.6,> 100,,32.9,94.8,> 100,35.2,61.5,,,,,,,,,
C=C1C(=O)[C@@]23CC[C@@H]4[C@@]5(C)CCC[C@@]4(OC5=O)[C@@]2(C)CC[C@@H]1C3,10.6,4.99,,5.31,2.21,21.4,23.3,7.05,8.12,,,,,,,,,

Structure (SMILES),TGI (HT29 colon) [µM],TGI (IGROV1 ovarian) [µM],TGI (K-562 leukemia) [µM],TGI (MALME-3M melanoma) [µM],TGI (MCF7 breast) [µM],TGI (NCI/ADR-RES ovarian) [µM],TGI (SK-OV-3 ovarian) [µM],TGI (U251 CNS) [µM],TGI (SK-MEL-2 melanoma) [µM],GI50 (HT29 colon) [µM],GI50 (K-562 leukemia) [µM],GI50 (MALME-3M melanoma) [µM],GI50 (MCF7 breast) [µM],GI50 (NCI/ADR-RES ovarian) [µM],GI50 (SK-MEL-2 melanoma) [µM],GI50 (SK-OV-3 ovarian) [µM],GI50 (U251 CNS) [µM],GI50 (IGROV1 ovarian) [µM]
C=C(C)CNCCN,> 100,> 100,> 100,> 100,,> 100,,> 100,> 100,,,,,,,,,
[N-]=[N+]=CC(=O)OC(CCl)CCl,> 100,> 100,> 100,> 100,> 100,,> 100,> 100,> 100,,,,,,,,,
CC1(C)C=CC(=O)C(O)C(C)(C)C1=O (configuration not stated),> 100,> 100,> 100,> 100,,> 100,> 100,> 100,> 100,,,,,,,,,
CN(C)Cc1cc(C(=O)/C=C/c2ccc([N+](=O)[O-])cc2)cc(CN(C)C)c1O,25,35.6,> 100,,34.9,87,,14.9,30.1,,,,,,,,,
O=C(CN1C(=O)CC(c2ccccc2)(c2ccccc2)C1=O)N1CCN(CCO)CC1,> 100,> 100,> 100,,> 100,> 100,> 100,> 100,> 100,,,,,,,,,
Cc1cc(OP2(=O)NCc3ncccc3O2)ccc1Cl (configuration not stated),,> 100,> 100,,> 100,> 100,,> 100,> 100,,,,,,,,,
CCCCCCCCCCCCCCCC(=O)N1CCCC1C(=O)NCC(=O)NC(Cc1ccccc1)C(=O)N1CCCC1C(=O)NC(CO)C(=O)NC(Cc1ccc(O)cc1)C(=O)NC(CCCCN)C(=O)NC(CC(C)C)C(=O)NC(CCCN=C(N)N)C(=O)N1CCCC1C(=O)NCC(N)=O (configuration not stated) (Palmitoyl-PGFPSYKLRPG-NH2; configuration not given here),29.3,48.8,38.5,5.73,35.3,39.2,48.1,,> 100,15.8,14.3,0.45,15,18.2,46.2,23.2,,18.6
Cc1cc(C)nc(NC(=S)Nc2ccc([N+](=O)[O-])cc2)c1,> 100,> 100,> 100,,> 100,> 100,,> 100,> 100,,,,,,,,,
O=C(O)c1cccc(S(=O)(=O)NN2C(=O)CSC2c2ccc(Cl)cc2Cl)c1 (configuration not stated),> 100,> 100,> 100,> 100,> 100,,> 100,44.7,> 100,,,,,,,,,
CC(C(=O)COCc1ccccc1)P1(=O)OC(C)(C)CN1C(C)(C)C (configuration not stated),> 100,,,,> 100,> 100,> 100,,,,,,,,,,,
O=C1C(=Nc2ccc(Nc3ccccc3)cc2)Oc2ccccc21,4.53,5.96,11.4,9.71,5.74,,23,4.27,14.4,,,,,,,,,
Clc1ccc(C=NC23CC4CC(CC(C4)C2)C3)c(Cl)c1,> 10,> 10,> 10,> 10,,> 10,> 10,> 10,> 10,,,,,,,,,
Cn1c2ccccc2c2c(=S)c3ccccc3ccc21,> 100,> 100,> 100,> 100,> 100,> 100,> 100,> 100,,,,,,,,,,
CN1CC[C@]2(c3cccc(O)c3)CC(=O)/C(=C/c3ccccc3)[C@@H]1C2,7.55,14.6,4.01,10.4,6.06,16.1,,8.36,13,,,,,,,,,
C[C@@H]1CCC2[C@@H](C)[C@@H](O[C@H]3O[C@@H]4O[C@@]5(C)CCC6[C@H](C)CCC([C@H]3C)[C@]64OO5)O[C@@H]3O[C@@]4(C)CCC1[C@@]23OO4 (some centres not stated),> 25,> 25,> 25,,> 25,> 25,> 25,> 25,> 25,,,,,,,,,
CC(C)C1=CC23CCC4C(C)(C(=O)O)CCCC4(C)C2CC1C1C(=O)N(CCCCCCN2C(=O)C4C5CC6C7(C)CCCC(C)(C(=O)O)C7CCC6(C=C5C(C)C)C4C2=O)C(=O)C13 (configuration not stated),13.8,,> 100,31.2,21.7,,,15.7,28.2,,,,,,,,,
CC(C)(CO)CNc1nc(N)nc(Cl)c1/C=N/O,> 100,90.8,> 100,> 100,> 100,> 100,,> 100,> 100,,,,,,,,,
